Assay results as given in PubChem BioAssay (NCI).
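Assay format: 96-well plates, 48-hour exposure. GI50: concentration for 50% inhibition of growth. TGI: total growth inhibition.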

Each compound was assayed on HOP-62 NSCLC (assay: NCI anticancer screen, dose series, 48 h).

Q: Which results are given for `Nc1ccncc1/C=C1/C(=O)Nc2ccccc21`?
A: GI50: 23.6 µM; TGI: 81.6 µM

Q: What does the source list for `CC(=O)Oc1ccc(Nc2c3ccccc3nc3ccccc23)cc1`?
A: GI50: 0.971 µM; TGI: 3.48 µM

The compounds below were run on HOP-92 NSCLC (assay: NCI anticancer screen, dose series, 48 h).

Q: How did the GI50 turn out when `CCCCCc1c(C)[nH]c(/C=C2\N=C(c3ccc[nH]3)C=C2CC)c1C` was run?
A: < 0.013 µM

Q: And the TGI?
A: 0.0426 µM

These compounds were tested on HS 578T breast (assay: NCI anticancer screen, dose series, 48 h).

Q: Which GI50 does the source give for `CCCCCc1c(C)[nH]c(/C=C2\N=C(c3ccc[nH]3)C=C2CC)c1C` here?
A: 0.014 µM

Q: And the TGI?
A: 0.129 µM

Q: Which GI50 does the source give for `CC(=O)Oc1ccccc1C(=O)N=C1[Se]CCCN1C(=O)c1ccccc1OC(C)=O` here?
A: 2.07 µM

Q: And the TGI?
A: 6.32 µM

Q: Which results are given for `Nc1ccncc1/C=C1/C(=O)Nc2ccccc21`?
A: GI50: 41.2 µM; TGI: > 100 µM

Q: Which GI50 does the source give for `CC(=O)Oc1ccc(Nc2c3ccccc3nc3ccccc23)cc1` here?
A: 0.435 µM

Q: What about the TGI of the same compound?
A: 3.19 µM

The compounds below were run on HT29 colon (assay: NCI anticancer screen, dose series, 48 h).

Q: For `CCCCCc1c(C)[nH]c(/C=C2\N=C(c3ccc[nH]3)C=C2CC)c1C`, which GI50 is on record?
A: < 0.01 µM

Q: And the TGI?
A: 0.131 µM

Q: How did the GI50 turn out when `CC(=O)Oc1ccccc1C(=O)N=C1[Se]CCCN1C(=O)c1ccccc1OC(C)=O` was run?
A: 3.15 µM

Q: And the TGI?
A: 8.73 µM

Q: Which results are given for `Nc1ccncc1/C=C1/C(=O)Nc2ccccc21`?
A: GI50: 27.8 µM; TGI: > 100 µM

Q: Which GI50 does the source give for `CC(=O)Oc1ccc(Nc2c3ccccc3nc3ccccc23)cc1` here?
A: 1.1 µM

Q: What about the TGI of the same compound?
A: 3.53 µM

The compounds below were run on IGROV1 ovarian (assay: NCI anticancer screen, dose series, 48 h).

Q: `CCCCCc1c(C)[nH]c(/C=C2\N=C(c3ccc[nH]3)C=C2CC)c1C` was tested. Which GI50 did it give?
A: 0.0268 µM

Q: And the TGI?
A: 0.163 µM

Q: How did the GI50 turn out when `CC(=O)Oc1ccccc1C(=O)N=C1[Se]CCCN1C(=O)c1ccccc1OC(C)=O` was run?
A: 2.83 µM

Q: What about the TGI of the same compound?
A: 11.6 µM

Q: Which results are given for `Nc1ccncc1/C=C1/C(=O)Nc2ccccc21`?
A: GI50: 29 µM; TGI: > 100 µM

Q: What does the source list for `CC(=O)Oc1ccc(Nc2c3ccccc3nc3ccccc23)cc1`?
A: GI50: 1.15 µM; TGI: 6.98 µM

The compounds below were run on K-562 leukemia (assay: NCI anticancer screen, dose series, 48 h).

Q: Which results are given for `CCCCCc1c(C)[nH]c(/C=C2\N=C(c3ccc[nH]3)C=C2CC)c1C`?
A: GI50: < 0.01 µM; TGI: 0.176 µM

Q: For `CC(=O)Oc1ccccc1C(=O)N=C1[Se]CCCN1C(=O)c1ccccc1OC(C)=O`, which GI50 is on record?
A: 3.32 µM

Q: And the TGI?
A: 12.6 µM

Q: `Nc1ccncc1/C=C1/C(=O)Nc2ccccc21` was tested. Which GI50 did it give?
A: 33.6 µM

Q: And the TGI?
A: > 100 µM

Q: Which GI50 does the source give for `CC(=O)Oc1ccc(Nc2c3ccccc3nc3ccccc23)cc1` here?
A: 1.45 µM

Q: What about the TGI of the same compound?
A: > 100 µM

The compounds below were run on KM12 colon (assay: NCI anticancer screen, dose series, 48 h).

Q: Which results are given for `CCCCCc1c(C)[nH]c(/C=C2\N=C(c3ccc[nH]3)C=C2CC)c1C`?
A: GI50: < 0.01 µM; TGI: 0.191 µM

Q: Which GI50 does the source give for `Nc1ccncc1/C=C1/C(=O)Nc2ccccc21` here?
A: 25 µM

Q: What about the TGI of the same compound?
A: > 100 µM

Q: `CC(=O)Oc1ccc(Nc2c3ccccc3nc3ccccc23)cc1` was tested. Which GI50 did it give?
A: 1.88 µM

Q: What about the TGI of the same compound?
A: 10.5 µM

These compounds were tested on LOX IMVI melanoma (assay: NCI anticancer screen, dose series, 48 h).

Q: `CCCCCc1c(C)[nH]c(/C=C2\N=C(c3ccc[nH]3)C=C2CC)c1C` was tested. Which GI50 did it give?
A: < 0.01 µM

Q: For `CC(=O)Oc1ccccc1C(=O)N=C1[Se]CCCN1C(=O)c1ccccc1OC(C)=O`, which GI50 is on record?
A: 1.7 µM

Q: And the TGI?
A: 4.37 µM

Q: Which results are given for `Nc1ccncc1/C=C1/C(=O)Nc2ccccc21`?
A: GI50: 28 µM; TGI: > 100 µM

Q: What does the source list for `CC(=O)Oc1ccc(Nc2c3ccccc3nc3ccccc23)cc1`?
A: GI50: 0.736 µM; TGI: 2.03 µM

Each compound was assayed on M14 melanoma (assay: NCI anticancer screen, dose series, 48 h).

Q: Which GI50 does the source give for `CCCCCc1c(C)[nH]c(/C=C2\N=C(c3ccc[nH]3)C=C2CC)c1C` here?
A: < 0.01 µM

Q: What about the TGI of the same compound?
A: 0.0237 µM

Q: Which GI50 does the source give for `CC(=O)Oc1ccccc1C(=O)N=C1[Se]CCCN1C(=O)c1ccccc1OC(C)=O` here?
A: 1.86 µM

Q: And the TGI?
A: 4.68 µM

Q: `Nc1ccncc1/C=C1/C(=O)Nc2ccccc21` was tested. Which GI50 did it give?
A: 20.5 µM

Q: What about the TGI of the same compound?
A: 59.6 µM

Q: How did the GI50 turn out when `CC(=O)Oc1ccc(Nc2c3ccccc3nc3ccccc23)cc1` was run?
A: 1.46 µM

Q: And the TGI?
A: 3.7 µM

These compounds were tested on MALME-3M melanoma (assay: NCI anticancer screen, dose series, 48 h).

Q: `CCCCCc1c(C)[nH]c(/C=C2\N=C(c3ccc[nH]3)C=C2CC)c1C` was tested. Which GI50 did it give?
A: 0.0333 µM

Q: And the TGI?
A: 0.187 µM

Q: Which results are given for `CC(=O)Oc1ccccc1C(=O)N=C1[Se]CCCN1C(=O)c1ccccc1OC(C)=O`?
A: GI50: 2.31 µM; TGI: 4.9 µM

Q: For `Nc1ccncc1/C=C1/C(=O)Nc2ccccc21`, which GI50 is on record?
A: 20.6 µM

Q: What about the TGI of the same compound?
A: 80.9 µM

Q: For `CC(=O)Oc1ccc(Nc2c3ccccc3nc3ccccc23)cc1`, which GI50 is on record?
A: 1.31 µM

Q: And the TGI?
A: 5.35 µM

These compounds were tested on MCF7 breast (assay: NCI anticancer screen, dose series, 48 h).

Q: With `CCCCCc1c(C)[nH]c(/C=C2\N=C(c3ccc[nH]3)C=C2CC)c1C` as the compound, how does the GI50 read?
A: 0.0208 µM

Q: What about the TGI of the same compound?
A: 0.106 µM

Q: How did the GI50 turn out when `CC(=O)Oc1ccccc1C(=O)N=C1[Se]CCCN1C(=O)c1ccccc1OC(C)=O` was run?
A: 2.79 µM

Q: What about the TGI of the same compound?
A: 10.8 µM

Q: Which results are given for `Nc1ccncc1/C=C1/C(=O)Nc2ccccc21`?
A: GI50: 26.6 µM; TGI: > 100 µM

Q: Which results are given for `CC(=O)Oc1ccc(Nc2c3ccccc3nc3ccccc23)cc1`?
A: GI50: 0.476 µM; TGI: 10.1 µM

The compounds below were run on MDA-MB-231 breast (assay: NCI anticancer screen, dose series, 48 h).

Q: With `CCCCCc1c(C)[nH]c(/C=C2\N=C(c3ccc[nH]3)C=C2CC)c1C` as the compound, how does the GI50 read?
A: < 0.01 µM

Q: What about the TGI of the same compound?
A: 0.0186 µM

Q: How did the GI50 turn out when `CC(=O)Oc1ccccc1C(=O)N=C1[Se]CCCN1C(=O)c1ccccc1OC(C)=O` was run?
A: 2.22 µM

Q: And the TGI?
A: 5.02 µM

Q: `Nc1ccncc1/C=C1/C(=O)Nc2ccccc21` was tested. Which GI50 did it give?
A: 50.1 µM

Q: What about the TGI of the same compound?
A: > 100 µM

Q: `CC(=O)Oc1ccc(Nc2c3ccccc3nc3ccccc23)cc1` was tested. Which GI50 did it give?
A: 1.7 µM

Q: What about the TGI of the same compound?
A: 6.23 µM

Each compound was assayed on MDA-MB-435 (assay: NCI anticancer screen, dose series, 48 h).

Q: Which results are given for `CCCCCc1c(C)[nH]c(/C=C2\N=C(c3ccc[nH]3)C=C2CC)c1C`?
A: GI50: < 0.01 µM; TGI: 0.108 µM

Q: With `CC(=O)Oc1ccccc1C(=O)N=C1[Se]CCCN1C(=O)c1ccccc1OC(C)=O` as the compound, how does the GI50 read?
A: 1.98 µM

Q: What about the TGI of the same compound?
A: 4.76 µM

Q: For `Nc1ccncc1/C=C1/C(=O)Nc2ccccc21`, which GI50 is on record?
A: 14.4 µM

Q: And the TGI?
A: 35.4 µM

Q: With `CC(=O)Oc1ccc(Nc2c3ccccc3nc3ccccc23)cc1` as the compound, how does the GI50 read?
A: 2.17 µM

Q: What about the TGI of the same compound?
A: 8.16 µM

Each compound was assayed on MOLT-4 leukemia (assay: NCI anticancer screen, dose series, 48 h).

Q: For `CCCCCc1c(C)[nH]c(/C=C2\N=C(c3ccc[nH]3)C=C2CC)c1C`, which GI50 is on record?
A: < 0.01 µM

Q: What about the TGI of the same compound?
A: 0.108 µM

Q: For `CC(=O)Oc1ccccc1C(=O)N=C1[Se]CCCN1C(=O)c1ccccc1OC(C)=O`, which GI50 is on record?
A: 1.92 µM

Q: What about the TGI of the same compound?
A: 4.96 µM

Q: Which GI50 does the source give for `Nc1ccncc1/C=C1/C(=O)Nc2ccccc21` here?
A: 37.3 µM

Q: And the TGI?
A: > 100 µM

Q: For `CC(=O)Oc1ccc(Nc2c3ccccc3nc3ccccc23)cc1`, which GI50 is on record?
A: 0.321 µM

Q: And the TGI?
A: > 100 µM

What follows are compounds tested on NCI-H226 lung (assay: NCI anticancer screen, dose series, 48 h).

Q: How did the GI50 turn out when `CCCCCc1c(C)[nH]c(/C=C2\N=C(c3ccc[nH]3)C=C2CC)c1C` was run?
A: < 0.0131 µM

Q: And the TGI?
A: 0.0452 µM

Q: What does the source list for `CC(=O)Oc1ccccc1C(=O)N=C1[Se]CCCN1C(=O)c1ccccc1OC(C)=O`?
A: GI50: 2.01 µM; TGI: 4.74 µM
